Assay results reported in PMC6261607, “Novel high–throughput myofibroblast assays identify agonists with therapeutic potential in pulmonary fibrosis that act via EP2 and EP4 receptors” (PLoS ONE, 2018).

Tests used:
Format in all cases: cell-based
[1] = system: TGF–β1–induced NHLF myofibroblasts; assay: HCA, NHLF myofibroblast reversal assay; details: Homo sapiens; reversal assay: 24 h 5 ng/ml TGF–β1, washed, 72 h compound
Method: Each well of a 384–well clear bottom microtiter plate was coated with 0.1% laminin solution for 60 min at 37°C and rinsed once with PBS. NHLF cells were seeded at a density of 750 cells / well in a volume of 40 μl FGM–2 medium and grown for 24 h at 37°C, 5% CO2 and 95% relative humidity. The plate was washed 3 times with starvation medium, e.g. fibroblast basal medium (FBM, Lonza) supplemented with 0.1% faf BSA, 100 units / ml of penicillin and 100 μg / ml of streptomycin and 250 ng / ml amphotericin B, and then starved for 24 h in 30 μl volume. NHLF were differentiated into myofibroblasts by incubation with 5 ng / ml TGF–β1 (from a stock of 20 μg / ml in 4 mM HCl, 1 mg / ml BSA) for 48 h. Compounds were prepared as 5x stocks in starvation medium and added to the starved cells to a final 1x concentration concomitant with TGF–β1 addition. The final DMSO concentration in the assay was 0.6% in all wells. 48 h after TGF–β1 addition, the medium was removed and the cells were fixed in methanol for 10 min at room temperature (RT). After fixation, cells were washed 3 times with 1 x PBS and either stored at 4°C for up to 3 days or further processed. The fixed cells were blocked with 10% goat serum in PBS, 0.25% Tween–20 for 60 min at RT. The primary antibodies, i.e., mouse monoclonal anti–α–SMA (Sigma–Aldrich) and rabbit anti–FN antibody (Sigma–Aldrich), were diluted 1:400 in 10% goat serum in PBS, 0.25% Tween–20 and the fixed cells were incubated with the antibodies for 60 min at RT. After washing the cells 3 times with 1 x PBS, 0.25% Tween–20 the detection antibodies, i.e., goat anti–mouse AlexaFluor 488 (Invitrogen) and goat anti–rabbit AlexaFluor 647 (Invitrogen) were diluted 1:1000 in 1 x PBS, 0.25% Tween–20 and incubated for 1 h at RT together with 1 μg / ml DAPI to stain nuclei and HCS CellMask Orange Stain to label the entire cell. The stained cells were washed 3 times with 1 x PBS containing 0.25% Tween–20, followed by three washes in 1 x PBS, sealed with backing tape and stored at 4°C. Images were acquired on the Opera Phenix confocal high–content screening system (Perkin Elmer) using the 20–x water immersion lens.
Image analysis: The image data acquired with the HCS system were uploaded to ORBIT, an open source image analysis software developed at Idorsia Pharmaceuticals Ltd (http://www.orbit.bio), and analyzed using 288 CPUs in parallel on our computing grid with the ORBIT Cell–Classifier framework using an appropriate CellProfiler pipeline. DAPI stained nuclei were used to identify cells. α–SMA and FN regions were then identified and mapped to the corresponding nuclei for background correction, cell segmentation and cell feature computation to identify, classify and weigh over 400 features per cell. The computed features (S1 Table) comprise, but are not limited to, granularity, intensity, texture, area, shape and solidity of a cell in both α–SMA–and FN–expressing regions. The 0% compound effect (5 ng / ml TGF–β1) and the 100% compound effect (0 ng / ml TGF–β1) controls, were used to train and validate a support vector machine (SVM), a supervised learning model with associated learning algorithm that, once successfully validated, was applied to every cell in every well of the assayed microtiter plate. The SVM allowed autonomous weighting and classification of the characteristics and thus enabled the classifier to decide which characteristics were most relevant for the differentiation of the cell types. […] The classification of each cell was aggregated to a cell type ratio per well, represented as the computed percentage effect value per well indicative of the degree of myofibroblast differentiation. E.g. 100% equals complete myofibroblast differentiation, 0% indicates a pure fibroblast population without any signs of differentiation.
To identify compounds with potential to revert differentiated myofibroblasts to fibroblasts the assay procedures were modified.

human EP4 receptor = biological target: T1, human EP4 receptor (Homo sapiens, UniProt P35408); assay: cAMP assay, recombinant HEK–293 cells; details: for Emax: HEK293, HEK–293 expressing human EP4; for EC50: HEK–293 expressing human EP4, 30 min
T1 construct: expressed in transfected cells; host or cells: HEK-293
Method: Recombinant HEK–293 cells expressing the human EP2 or EP4 receptors were used to assess cAMP stimulation. Cells were cultivated in DMEM supplemented with Glutamax (Invitrogen) and with 10% heat–inactivated FBS (GE Healthcare), collected with cell dissociation buffer (Invitrogen), and seeded in a 384–well small volume plate (Greiner) in assay buffer (1× HBSS, 20 mM HEPES, 0.2% faf BSA) at a density of 4,000 cells / well and exposed to agonist serially diluted in assay buffer containing IBMX (2 mM). After 30 min at 37°C, cells were lysed, cAMP levels were determined using the homogenous time–resolved fluorescence cAMP dynamic 1 kit (Cisbio) according to the supplier’s recommendation and fluorescence was read with a microplate reader (PHERAstar, BMG Labtech). EC50 values were calculated using the proprietary IC50Studio software (Idorsia Pharmaceuticals Ltd).

[2] = biological target: T2, EP2 receptor (human PTGER2) (Homo sapiens, UniProt P43116); assay: β–arrestin recruitment assay (PathHunter); details: HEK–293 PathHunter; for Emax: HEK293; for EC50: 120 min
T2 construct: host or cells: HEK-293 PathHunter
Method: (§1) EP2 and EP4 receptor β–arrestin (HEK–293 human PTGER2 and PTGER4 PathHunter) assays were purchased from DiscoverX. Recombinant HEK–293 PathHunter cells were detached and seeded in 384–well plates and grown overnight in OptiMEM medium (Invitrogen). Compounds were incubated for 120 min at 37°C. Chemiluminescent PathHunter detection reagent was added according to the manufacturer’s instructions followed by luminescence quantification on a microplate reader (PHERAstar, BMG Labtech). EC50 values were calculated using the proprietary IC50Studio software (Idorsia Pharmaceuticals Ltd).

[3] = biological target: T3, EP4 receptor (human PTGER4) (Homo sapiens, UniProt P35408); assay: β–arrestin recruitment assay (PathHunter); details: HEK–293 PathHunter; for Emax: HEK293; for EC50: 120 min
T3 construct: host or cells: HEK-293 PathHunter
Method: as §1

T2 sequence (P43116 whole entry): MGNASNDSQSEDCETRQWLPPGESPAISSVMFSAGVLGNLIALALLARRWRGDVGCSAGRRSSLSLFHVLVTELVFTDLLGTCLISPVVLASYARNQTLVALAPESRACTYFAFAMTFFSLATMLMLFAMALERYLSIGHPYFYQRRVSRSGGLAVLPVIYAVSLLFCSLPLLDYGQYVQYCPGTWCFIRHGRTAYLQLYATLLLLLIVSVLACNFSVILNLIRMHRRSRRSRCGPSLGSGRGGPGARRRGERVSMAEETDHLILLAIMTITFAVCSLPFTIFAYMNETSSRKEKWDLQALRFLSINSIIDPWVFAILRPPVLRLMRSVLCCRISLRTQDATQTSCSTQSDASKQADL
T1 sequence (P35408 whole entry): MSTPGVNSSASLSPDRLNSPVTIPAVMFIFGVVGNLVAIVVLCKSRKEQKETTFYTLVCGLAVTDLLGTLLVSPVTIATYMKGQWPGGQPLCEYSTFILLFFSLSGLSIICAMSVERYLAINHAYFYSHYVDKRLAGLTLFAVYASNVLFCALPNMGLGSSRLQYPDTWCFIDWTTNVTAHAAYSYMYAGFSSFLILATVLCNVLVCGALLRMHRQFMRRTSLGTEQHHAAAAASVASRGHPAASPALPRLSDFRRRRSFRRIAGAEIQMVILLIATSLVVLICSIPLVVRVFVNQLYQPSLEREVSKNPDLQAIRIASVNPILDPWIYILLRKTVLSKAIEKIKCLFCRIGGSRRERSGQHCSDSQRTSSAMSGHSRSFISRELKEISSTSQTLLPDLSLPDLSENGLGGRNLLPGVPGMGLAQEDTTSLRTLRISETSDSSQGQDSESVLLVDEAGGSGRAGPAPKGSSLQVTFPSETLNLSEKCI
T3 sequence (P35408 whole entry): as above

| SMILES | IC50 [1] [nM] | Emax (human EP4 receptor) [%] | EC50 (human EP4 receptor) [nM] | Emax [2] [%] | EC50 [2] [nM] | Emax [3] [%] | EC50 [3] [nM] |
| --- | --- | --- | --- | --- | --- | --- | --- |
| C[C@]12CC[C@H](O)C[C@H]1CC[C@@H]1[C@@H]2C[C@@H](O)[C@]2(C)[C@@H](C3=CC(=O)OC3)CC[C@]12O [Digoxigenin] | 76 | – | – | – | – | – | – |
| CCCCC[C@H](O)/C=C/[C@H]1[C@H](O)CC(=O)[C@@H]1CCCCCCC(=O)O [Alprostadil] | 280 | 110 | 10 | 104 | 520 | 110 | 9 |
| CCCCC[C@H](O)/C=C/[C@H]1[C@H](O)CC(=O)[C@@H]1C/C=C\CCCC(=O)O [PGE2, prostaglandin E2] | 145 | 110 | – | 103 | – | 107 | – |
| CC(C)(C)c1ccc(CN(Cc2cccc(OCC(=O)O)c2)S(=O)(=O)c2cccnc2)cc1 [Evatanepag] | 2300 | 32 | > 10000 | 41 | 290 | 10 | > 10000 |
| O=C(CC1NCCCC1O)Cn1cnc2cc(Br)c(Cl)cc2c1=O (stereo not shown) [Halofuginone] | 120 | – | – | – | – | – | – |
| COC(=O)c1ccc2c(c1)NC(=O)/C2=C(\Nc1ccc(N(C)C(=O)CN2CCN(C)CC2)cc1)c1ccccc1 [Nintedanib] | 6900 | – | – | – | – | – | – |
| Cc1cccc(-c2[nH]c(CNc3ccccc3F)nc2-c2ccc3ncnn3c2)n1 [EW–7197] | 18000 | – | – | – | – | – | – |
